This is an account of results in article PMC4564450, “Oral and inhaled p38 MAPK inhibitors: effects on inhaled LPS challenge in healthy subjects” (European Journal of Clinical Pharmacology, 2015).

The conditions of series [1]: oral, 12-week treatment; cited from earlier work.
Series [2] concerns airway inflammation after LPS challenge. Details: method as in PMID 17045826. Conditions: oral, 6-day treatment; cited from earlier work.
Series [3] relates to IL-6, MPO, MCP-1 and MIP-1β in sputum supernatant. Put plainly: Inhaled LPS challenge: sputum supernatant protein biomarkers. It counts as in vivo, human. Conditions: study 3.
Protocol: A baseline sputum sample was obtained within 14 days of the first study period when subjects were administered a single dose of randomised treatment. […] Induced sputum was obtained 6 h later to coincide with the maximal inflammatory response caused by inhaled LPS. A washout period of at least 21 days followed, with subjects returning after 14 days of the washout period for induced sputum sampling; this was performed to ensure that the total cell count, total neutrophil count and total macrophage count were within the range of −80 to +100 % of the screening values. […] If these criteria were not met, then up to two repeat visits to obtain sputum were allowed, with at least 4 days between sputum inductions. The next randomised treatment day was scheduled at least 4 days after sputum induction and was identical to the first treatment day.
Sputum was induced using normal saline after inhalation of salbutamol, and processing was performed using dithiothreitol (DTT) as previously described [20]. The supernatants were stored at −80 °C for later analysis, while cells were used to produce cytoslides (Cytospin 4, Shandon, Runcorn, UK) for differential cell counting and immunocytochemistry. Cytoslides for differential cell count were fixed in methanol (Sigma) and then stained with Rapi-Diff® (GCC Diagnostics, Sandyhurst, UK) or Wright-modified Giemsa (Accustatin WG-18, Sigma-Aldrich); a minimum of 400 non-squamous cells were counted and differential cell counts obtained as percentage of total non-squamous cells. Cell viability was analysed by trypan blue exclusion. Cytoslides with % squamous cell counts <20 % were deemed to be of acceptable quality for differential cell counting. Unfixed cytoslides were wrapped in aluminium foil and stored frozen at −80 °C for immunocytochemistry.
In studies 1 and 2, sputum supernatants were analysed for interleukin 6 (IL-6), myeloperoxidase (MPO), monocyte chemotactic protein-1 (MCP-1) and macrophage inflammatory protein-1β (MIP-1 β), using electrochemiluminescent immunoassays (ECLIA) or enzyme-linked immunosorbent assays (ELISA); the manufacturers are listed in the online supplement. In study 3, sputum supernatants were analysed for IL-6, MCP-1 and MIP-1β by the same method.
The subject of series [4] is sputum neutrophils and macrophages after inhaled LPS. Put plainly: Inhaled LPS challenge in healthy subjects: induced sputum cell counts. It counts as in vivo, human. The note with it: study 3. The protocol:
Three randomised, double-blind, placebo-controlled crossover studies were performed; the effects of a single dose of active treatment was investigated in all three studies. […] Studies 2 and 3 were conducted at two UK centres: Quintiles Drug Research Unit, London, and Medicines Evaluation Unit, Manchester. […] The studies were performed during the following time periods: study 1, Sep 2006–Mar 2008; study 2, Jan 2011–Dec 2011; and study 3, Jul 2011–Jan 2012. The design of all three studies was similar. A baseline sputum sample was obtained within 14 days of the first study period when subjects were administered a single dose of randomised treatment. […] Induced sputum was obtained 6 h later to coincide with the maximal inflammatory response caused by inhaled LPS. […] This criterion was used to ensure that sputum cell counts after LPS challenge had returned to close to the original baseline values; this was done to reduce data variability between treatment periods. […] For each challenge, a 1-mg vial of lyophilised LPS (Escherichia coli serotype O26:B6, ref. L-2654, Sigma-Aldrich, Dorset, UK) was diluted with 4 mL of 0.9 % w/v sodium chloride. The reconstitution produced a 0.25 mg/mL solution, of which 2 mL was placed into the pre-calibrated dosimeter pot and administered via five inhalations from a breath-activated dosimeter (Mefar dosimeter MB3, Brescia, Italy). Each inhalation was performed over 3 s with a 6-s breath hold. […] Sputum was induced using normal saline after inhalation of salbutamol, and processing was performed using dithiothreitol (DTT) as previously described. The supernatants were stored at −80 °C for later analysis, while cells were used to produce cytoslides (Cytospin 4, Shandon, Runcorn, UK) for differential cell counting and immunocytochemistry. […] Cell viability was analysed by trypan blue exclusion. Cytoslides with % squamous cell counts <20 % were deemed to be of acceptable quality for differential cell counting. Unfixed cytoslides were wrapped in aluminium foil and stored frozen at −80 °C for immunocytochemistry. Sputum neutrophil percentage was the primary endpoint for all three studies. The neutrophil percentage was modelled using a mixed effects analysis of covariance (ANCOVA) model appropriate for a two-period, two-treatment or three-period, three-treatment crossover design. The fixed effects in the model were treatment and period. Subjects were modelled as a random effect. Additionally, the period-specific baseline was modelled as a covariate. This model was used for all sputum inflammatory markers, including the immunohistocytochemistry, where cell counts were log transformed before analyzing the data and percent differentials were not transformed. […] Ninety percent confidence intervals of the difference (non-transformed data) or the ratio (log-transformed data) were constructed based on the ANCOVA model.

For series [5], the system named is IL-6, MCP-1, MIP1β, CC16, fibrinogen and CRP levels in plasma. Nature of the series: Inhaled LPS challenge: plasma protein biomarkers. It counts as in vivo, human. The note with it: study 3.
Protocol: Blood samples were obtained in studies 2 and 3 to obtain plasma measurements of IL-6, MCP-1, MIP1β, CC16, fibrinogen and CRP levels; pre-dose and 6 h post-LPS samples were used for statistical analysis. This coincided with the timings of sputum measurements of inflammation biomarkers.
Systemic biomarkers were analysed using a similar mixed effects model; these models also adjusted for pre-dose baseline values, which were obtained 24 h prior to LPS challenge in study 2 and 30 min prior to LPS challenge in study 3.
Series [6] is described as follows: Plasma pharmacokinetics (sparse sampling). Conditions: study 3, fluticasone 500 μg inhaled. It counts as in vivo, human.
On the set-up of series [7]: method as in PMID 12373268. Conditions: single inhaled dose; cited from earlier work.
[8] abbreviates: fluticasone 500 μg inhaled, post LPS.
The mark [9] stands for this setting: fluticasone propionate 500 μg inhaled.
[10] abbreviates: fluticasone 500 μg inhaled, post LPS, ANCOVA model mean.
Setting [11] is: fluticasone 500 μg inhaled, 6 hrs post LPS.

`Cc1c(F)cc(C(=O)NC2CC2)cc1-c1ccc(C(=O)NCC(C)(C)C)cn1` [losmapimod, reference compound]: the “sputum neutrophil counts in COPD patients” value in series [1] is “failed to reduce”.
Turning to `C[C@]12C=CC(=O)C=C1CC[C@@H]1[C@@H]2[C@@H](O)C[C@@]2(C)[C@H]1CC[C@]2(O)C(=O)CO` [prednisolone], in series [2], the “airway inflammation in an LPS challenge study” value is on record as “no effect” and the “plasma CRP levels in an LPS challenge study” value is given as “suppressed”.
Turning to `CCC(=O)O[C@]1(C(=O)SCF)[C@H](C)C[C@H]2[C@@H]3C[C@H](F)C4=CC(=O)C=C[C@]4(C)[C@@]3(F)[C@@H](O)C[C@@]21C` [fluticasone propionate, reference compound], in series [3] (setting [8]), the “Sputum IL-6, mean” value came out at 200.97 pg/mL; the “Sputum MCP-1, mean” value was determined as 133.79 pg/mL; the “Sputum MIP-1β, mean” value stood at 1157.87 pg/mL. The “sputum cytokine measurements compared to placebo” value in series [3] (setting [9]) is “no effects”. For the same compound, in series [4] (fluticasone 500 μg inhaled single dose, 6 h post-LPS), the “Mean (SD) sputum neutrophil percentage” value was 70.0 (12.9) %. Also, in series [4] (setting [10]), the “Macrophage Differential in sputum” value is listed as 27.53%, the “Total Cell Count in sputum” value turned out to be 3.02e+06 g⁻¹, the “Total Macrophage Count in sputum” value turned out to be 820000 g⁻¹ and the “Total Neutrophil Count in sputum” value turned out to be 2.04e+06 g⁻¹. In addition, in series [4] (fluticasone propionate 500 μg inhaled single dose, p = 0.55), the “sputum neutrophil percentage post-LPS challenge compared to placebo” value is “not changed significantly”. In addition, in series [4] (post LPS), the “Total Cell Count in sputum, Ratio of Means active/placebo” value is on record as 0.90; the “Total Macrophage Count in sputum, Ratio of Means active/placebo” value came to 0.93; the “Total Neutrophil Count in sputum, Ratio of Means active/placebo” value was “no effects”. In addition, in series [4] (post LPS, footnote: difference, not ratio), the “Macrophage Differential in sputum, difference between the active treatment mean and the placebo mean” value came to 2.04%. Besides, in series [4] (post LPS, listed as Fluticasone), the “Total Neutrophil Count in sputum, Ratio of Means active/placebo” value is recorded as 0.66. Moreover, in series [5] (setting [11]), the “Plasma CC16, mean” value worked out at 10.51 ng/mL; the “Plasma CRP, mean” value stood at 708.10 ng/mL; the “Plasma Fibrinogen, mean” value amounted to 2058.00 µg/mL; the “Plasma IL-6, mean” value is reported as 23.30 pg/mL. Further, in series [5] (setting [11]), the “Plasma MCP-1, mean” value stood at 401.70 pg/mL and the “Plasma MIP-1β, mean” value worked out at 76.95 pg/mL. Also, the “systemic biomarkers compared to placebo” value in series [5] (setting [9]) is “no effect”. Further, the Plasma concentration in series [6] (1.5 h) is on record as 56.0 (29.4) pg/mL. Also, in series [6] (6.5 h), the Plasma concentration is 37.31 (15.1) pg/mL. Moreover, the “effects of bronchial challenges in asthma” value in series [7] is given as “significantly inhibit”.
